Legend:
[1] = molecular target: T1, human FAAH (Fatty Acid Amide Hydrolase) (Homo sapiens (Human), UniProt O00519); assay: FAAH inhibition, human FAAH CHO whole cell format; format: cell-based
From the text: (§1) To assist in assay development stable cell lines for human, murine and rat full length FAAH were developed. […] The full length FAAH was subcloned into the mammalian expression vector, pcDEF.neo, using XbaI and EcoRI restriction sites and used for stable cell line generation.
(§2) The full length murine FAAH was subcloned into the mammalian expression vector, pcDEFneo using either EcoRI (murine) or KpnI and EcoRI (rat) restriction sites. Chinese hamster ovary cells (CHO) were transfected following manufacturers protocol (AMAXA). Forty eight hours post transfection, cells were trypsinized and transferred to 96 well plates in Iscove's DMEM media supplemented with 2 mM Glutamine, 10% fetal calf serum, 1 mg/ml geneticin and HT Supplement (0.1 mM sodium hypoxanthine, 0.016 mM thymidine) in order to isolate single clones. […] Following removal of tissue culture media cells were dislodged following addition of Cellstripper (Mediatech, Inc. Manassas, Va.) and transferred to 96 well black clear bottom assay plate, centrifuged at 1,000 rpm for 3 mins and media removed and replaced with assay buffer (50 mM Tris pH8.0, 1 mM EDTA, 0.1% fatty acid free BSA). The reaction was initiated by addition of fluorescent substrate, AMC Arachidonoyl Amide (Cayman Chemical, Ann Arbor, Mich.) to 1 μM and reaction allowed to proceed for 2 hours at room temperature. Release of fluorescence was monitored in a CytoFluor Multiplate Reader.
(§3) Assays are performed on either cell lysate or microsome fractions prepared as described or in whole cell format employing either the fluorescent substrate AAMCA (Cayman chemical, Ann Arbor, Mich.,) or ^3H-anandamide ([ETHANOLAMINE-1-3H] American Radiolabeled Chemicals; 1 mCi/ml). […] AAMCA substrate was used to achieve a final concentration of 1 μM and reaction allowed to proceed at room temperature for 1-3 hours. […] Whole cell assay is conducted with cells harvested after rinsing tissue culture flasks three times with Ca^++Mg^++ free PBS, incubating for 10 min in Enzyme free dissociation media and centrifuging for 5 minutes at 1,000 rpm in table top centrifuge. Cells are resuspended in assay buffer at desired cell number in (4×10^4 cells/assay in 96-well format; 1×10^4 cells/assay in 384-well format) and assayed as described.

[2] = molecular target: T1, human FAAH (Fatty Acid Amide Hydrolase); assay: FAAH inhibition, human FAAH CHO cell lysate (AAMCA fluorescence); format: biochemical
From the text: as §1, §2
CHO cells expressing FAAH were used to prepare either crude cell lysate or microsome fractions. To harvest cells, tissue culture media was decanted, the monolayer washed three times with Ca^++Mg^++ free PBS and cells recovered after 15 min in enzyme free dissociation media (Millipore Corp, Billerica, Mass.). Cells were collected by centrifuging at 2000 rpm for 15 min, and the cell pellet re-suspended with 50 mM HEPES (pH 7.4) containing 1 mM EDTA and the protease inhibitors aprotinin (1 mg/ml) and leupeptin (100 μM). The suspension was sonicated at 4° C. and the cell lysate recovered after centrifuging at 12,000×g (14,600 rpm, SS34 rotor) for 20 min at 4° C. to form a crude pellet of cell debris, nuclei, peroxisomes, lysosomes, and mitochondria; the supernatant or cell lysate was used for FAAH enzyme assay. In some eases, microsomes fractions enriched in FAAH were prepared by centrifuging the cell lysate further at 27,000 rpm (100,000×g) in SW28 rotor for 50 minutes at 4° C. The pellet containing FAAH-enriched microsomes was re-suspend in 50 mM HEPES, (pH 7.4) 1 mM EDTA, and any remaining DNA sheared by passage of material through a 23 gauge needle and aliquots of enzyme were store at −80° C. prior to use.
as §3
Alternatively, assays are performed using anandamide [ethanolamine 1-^3H] (specific activity of 10 Ci/mmol) diluted with cold anandamide to achieve a final assay concentration of 1 μM anandamide (˜50,000 cpm). Enzyme (CHO cell lysate, brain or liver homogenate) is incubated in assay buffer (50 mM Phosphate, pH 8.0, 1 mM EDTA, 200 mM KCl, 0.2% glycerol, 0.1% fatty acid free BSA) with inhibitor at 25° C. for 30 minutes.

T1 sequence (O00519 whole entry): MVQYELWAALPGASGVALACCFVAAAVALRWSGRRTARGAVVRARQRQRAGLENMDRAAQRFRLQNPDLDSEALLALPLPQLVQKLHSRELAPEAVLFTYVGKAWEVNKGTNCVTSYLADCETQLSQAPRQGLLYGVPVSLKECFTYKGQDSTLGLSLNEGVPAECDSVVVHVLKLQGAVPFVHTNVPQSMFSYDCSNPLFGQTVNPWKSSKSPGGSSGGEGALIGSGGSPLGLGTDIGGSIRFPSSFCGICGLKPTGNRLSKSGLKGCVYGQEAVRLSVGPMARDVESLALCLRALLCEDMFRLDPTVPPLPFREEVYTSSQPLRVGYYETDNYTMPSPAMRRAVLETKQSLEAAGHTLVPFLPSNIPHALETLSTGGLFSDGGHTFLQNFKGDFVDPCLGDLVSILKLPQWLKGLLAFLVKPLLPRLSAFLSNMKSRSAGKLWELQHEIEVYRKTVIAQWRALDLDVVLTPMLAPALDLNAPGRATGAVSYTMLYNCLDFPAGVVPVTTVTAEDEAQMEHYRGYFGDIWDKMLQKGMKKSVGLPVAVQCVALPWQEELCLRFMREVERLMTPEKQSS

Row | SMILES | IC50 [1] | IC50 [2]
1 | CS(=O)(=O)c1ccc(-c2nc(C3CCNCC3)oc2Sc2ccc(Cl)cn2)cc1 [Example A7.16, 5-chloro-2-({4-[4-(methylsulfonyl)phenyl]-2-(piperidin-4-yl)-1,3-oxazol-5-yl}sulfanyl)pyridine] | ≥ 10000 nM | 925 nM
2 | C[S+]([O-])c1ccc(-c2nc(C3CCN(C(=O)OCCNCCO)CC3)oc2Sc2ccc(Cl)cn2)cc1 (stereo not shown) [Example A7.30, 2-[(2-hydroxyethyl)amino]ethyl 4-{5-[(5-chloropyridin-2-yl)sulfanyl]-4-[4-(methylsulfinyl)phenyl]-1,3-oxazol-2-yl}piperidine-1-carboxylate] | ≥ 10000 nM | 2140 nM
3 | CN(C)c1ncc(-c2nc(C3CCOCC3)oc2Sc2ccc(Cl)cc2)cn1 [Example B5.11, 5-{5-[(4-chlorophenyl)sulfanyl]-2-(tetrahydro-2H-pyran-4-yl)-1,3-oxazol-4-yl}-N,N-dimethylpyrimidin-2-amine] | 36.9 nM | 13.1 nM
4 | Clc1ccc(Sc2oc(C3CCOCC3)nc2-c2cnn(CC3OCCO3)c2)cc1 [Example B5.5, 5-[(4-chlorophenyl)sulfanyl]-4-[1-(1,3-dioxolan-2-ylmethyl)-1H-pyrazol-4-yl]-2-(tetrahydro-2H-pyran-4-yl)-1,3-oxazole] | 1050 nM | 255 nM
5 | CC(C)(C)OC(=O)N1CCC(c2nc(-c3ccc(S(C)(=O)=O)cc3)c(Sc3ccc(Cl)cn3)o2)CC1 [Example A7.14, tert-butyl 4-{5-[(5-chloropyridin-2-yl)sulfanyl]-4-[4-(methylsulfonyl)phenyl]-1,3-oxazol-2-yl}piperidine-1-carboxylate] | 443 nM | 65.3 nM
6 | COCCOCCOCC(=O)N1CCC(c2nc(-c3ccc([S+](C)[O-])cc3)c(Sc3ccc(Cl)cn3)o2)CC1 (stereo not shown) [Example A7.26] | 6550 nM | 748 nM
7 | CN1CCC(c2nc(-c3ccc([S+](C)[O-])cc3)c(Sc3ccc(Cl)cn3)o2)CC1 (stereo not shown) [Example A7.20, 5-chloro-2-({2-(1-methylpiperidin-4-yl)-4-[4-(methylsulfinyl)phenyl]-1,3-oxazol-5-yl}sulfanyl)pyridine] | ≥ 10000 nM | 1700 nM
8 | Clc1ccc(Sc2oc(C3CCOCC3)nc2-c2ccc(N3CCNCC3)nc2)cc1 [Example B5.9, 1-(5-{5-[(4-chlorophenyl)sulfanyl]-2-(tetrahydro-2H-pyran-4-yl)-1,3-oxazol-4-yl}pyridin-2-yl)piperazine] | 115 nM | 9.61 nM
9 | C[S+]([O-])c1ccc(-c2nc(C3CCN(C(=O)OCCN4CCOCC4)CC3)oc2Sc2ccc(Cl)cn2)cc1 (stereo not shown) [Example A7.27, 2-(morpholin-4-yl)ethyl 4-{5-[(5-chloropyridin-2-yl)sulfanyl]-4-[4-(methylsulfinyl)phenyl]-1,3-oxazol-2-yl}piperidine-1-carboxylate] | 5010 nM | 482 nM
10 | CC(=O)N1CCC(c2nc(-c3ccc([S+](C)[O-])cc3)c(Sc3ccc(Cl)cn3)o2)CC1 (stereo not shown) [Example A7.18, 1-(4-{5-[(5-Chloropyridin-2-yl)sulfanyl]-4-[4-(methylsulfinyl)phenyl]-1,3-oxazol-2-yl}piperidin-1-yl)ethanone] | 4420 nM | 839 nM
11 | Clc1ccc(Sc2oc(C3CCOCC3)nc2-c2cnc3[nH]ncc3c2)cc1 [Example B5.10, 5-{5-[(4-chlorophenyl)sulfanyl]-2-(tetrahydro-2H-pyran-4-yl)-1,3-oxazol-4-yl}-1H-pyrazolo[3,4-b]pyridine] | 98.1 nM | 67.6 nM
12 | C[S+]([O-])c1ccc(-c2nc(C3CCOCC3)oc2Sc2ccc(Cl)cn2)cn1 (stereo not shown) [Example A7.2, 5-chloro-2-({4-[6-(methylsulfinyl)pyridin-3-yl]-2-(tetrahydro-2H-pyran-4-yl)-1,3-oxazol-5-yl}sulfanyl)pyridine] | 935 nM | 293 nM
13 | CC(C)(O)c1ccc(-c2nc(C3CCOCC3)oc2Sc2ccc(Cl)cc2)cn1 [Example B5.1, 2-(5-{5-[(4-chlorophenyl)sulfanyl]-2-(tetrahydro-2H-pyran-4-yl)-1,3-oxazol-4-yl}pyridin-2-yl)propan-2-ol] | 45.1 nM | 17.9 nM
14 | C[S+]([O-])c1ccc(-c2nc(C3=CCC(O)CC3)oc2Sc2ccc(Cl)cc2)cc1 (stereo not shown) [Example C6.2, 4-{5-[(4-Chlorophenyl)sulfanyl]-4-[4-(methylsulfinyl)phenyl]-1,3-oxazol-2-yl}cyclohex-3-en-1-ol] | 47.2 nM | 8.68 nM
15 | C[S+]([O-])c1ccc(-c2nc(C3CCN(C(=O)Oc4ccccc4)CC3)oc2Sc2ccc(Cl)cn2)cc1 (stereo not shown) [Example A7.21, phenyl 4-{5-[(5-chloropyridin-2-yl)sulfanyl]-4-[4-(methylsulfinyl)phenyl]-1,3-oxazol-2-yl}piperidine-1-carboxylate] | 124 nM | 25.9 nM
16 | C[S+]([O-])c1ccc(-c2nc(C3CCN(C(=O)OC(C)(C)C)CC3)oc2Sc2ccc(Cl)cn2)cc1 (stereo not shown) [Example A7.13, tert-butyl 4-{5-[(5-chloropyridin-2-yl)sulfanyl]-4-[4-(methylsulfinyl)phenyl]-1,3-oxazol-2-yl}piperidine-1-carboxylate] | 771 nM | 67.5 nM
17 | Clc1ccc(Sc2oc(C3CCOCC3)nc2-c2ccc3[nH]ncc3c2)cc1 [Example B5.2, 5-{5-[(4-chlorophenyl)sulfanyl]-2-(tetrahydro-2H-pyran-4-yl)-1,3-oxazol-4-yl}-1H-indazole] | 10.9 nM | 4.19 nM
18 | COCCOCC(=O)N1CCC(c2nc(-c3ccc([S+](C)[O-])cc3)c(Sc3ccc(Cl)cn3)o2)CC1 (stereo not shown) [Example A7.25, 1-(4-{5-[(5-chloropyridin-2-yl)sulfanyl]-4-[4-(methylsulfinyl)phenyl]-1,3-oxazol-2-yl}piperidin-1-yl)-2-(2-methoxyethoxy)ethanone] | 4670 nM | 525 nM
19 | C[S+]([O-])c1ccc(-c2nc(C3CCN(S(C)(=O)=O)CC3)oc2Sc2ccc(Cl)cn2)cc1 (stereo not shown) [Example A7.19, 5-chloro-2-({4-[4-(methylsulfinyl)phenyl]-2-[1-(methylsulfonyl)piperidin-4-yl]-1,3-oxazol-5-yl}sulfanyl)pyridine] | 3280 nM | 287 nM
20 | C[S+]([O-])c1ccc(-c2nc(C3=CCCCC3)oc2Sc2ccc(Cl)cc2)cc1 (stereo not shown) [Example C6.1, 5-[(4-chlorophenyl)sulfanyl]-2-(cyclohex-1-en-1-yl)-4-[4-(methylsulfinyl)phenyl]-1,3-oxazole] | 105 nM | 11.9 nM
21 | CC(C)OC(=O)N1CCC(c2nc(-c3ccc([S+](C)[O-])cc3)c(Sc3ccc(Cl)cn3)o2)CC1 (stereo not shown) [Example A7.22, propan-2-yl 4-{5-[(5-chloropyridin-2-yl)sulfanyl]-4-[4-(methylsulfinyl)phenyl]-1,3-oxazol-2-yl}piperidine-1-carboxylate] | 383 nM | 45.8 nM
22 | Clc1ccc(Sc2oc(C3CCOCC3)nc2-c2ccc3ncnn3c2)cc1 [Example B5.6, 6-{5-[(4-chlorophenyl)sulfanyl]-2-(tetrahydro-2H-pyran-4-yl)-1,3-oxazol-4-yl}[1,2,4]triazolo[1,5-a]pyridine] | 421 nM | 118 nM
23 | COCCOC(=O)N1CCC(c2nc(-c3ccc([S+](C)[O-])cc3)c(Sc3ccc(Cl)cn3)o2)CC1 (stereo not shown) [Example A7.24, 2-methoxyethyl 4-{5-[(5-chloropyridin-2-yl)sulfanyl]-4-[4-(methylsulfinyl)phenyl]-1,3-oxazol-2-yl}piperidine-1-carboxylate] | 1330 nM | 200 nM
